± gives the expanded uncertainty stated by the source.
What was measured:
[1] = 308.15 K, Drop volume
[2] = xn = mol fraction of the nth substance listed; conditions: 308.15 K, Drop volume

COC(=O)OC [dimethyl carbonate]
Conditions	surface tension liquid-gas [mN/m]
[1]	26.55 ± 0.23

CCOC(=O)OCC [diethyl carbonate] + CCCCCCCCCC
[2]
Conditions	surface tension liquid-gas [mN/m]
x1 = 0.0512	21.9 ± 0.26
x1 = 0.0983	21.84 ± 0.26
x1 = 0.1997	21.75 ± 0.26
x1 = 0.2968	21.78 ± 0.25
x1 = 0.406	21.84 ± 0.25
x1 = 0.499	21.88 ± 0.25
x1 = 0.5621	21.96 ± 0.25
x1 = 0.5994	21.99 ± 0.25
x1 = 0.6966	22.19 ± 0.25
x1 = 0.7951	22.49 ± 0.25
x1 = 0.9018	23.1 ± 0.25
x1 = 0.9511	23.5 ± 0.25

Cc1ccc(C)cc1 [1,4-dimethylbenzene]
Conditions	surface tension liquid-gas [mN/m]
[1]	26.29 ± 0.23

CCOC(=O)OCC [diethyl carbonate] + CCCCCCCC
[2]
Conditions	surface tension liquid-gas [mN/m]
x1 = 0.049	19.83 ± 0.24
x1 = 0.1008	19.89 ± 0.24
x1 = 0.2	19.91 ± 0.24
x1 = 0.2969	20.05 ± 0.24
x1 = 0.3972	20.26 ± 0.24
x1 = 0.4971	20.5 ± 0.24
x1 = 0.5495	20.63 ± 0.24
x1 = 0.5991	20.79 ± 0.24
x1 = 0.695	21.16 ± 0.24
x1 = 0.7938	21.7 ± 0.24
x1 = 0.8978	22.63 ± 0.24
x1 = 0.9504	23.33 ± 0.24

Cc1ccc(C)cc1 [1,4-dimethylbenzene] + CCCCCCCCCC
[2]
Conditions	surface tension liquid-gas [mN/m]
x1 = 0.1047	22.18 ± 0.26
x1 = 0.2152	22.39 ± 0.26
x1 = 0.2977	22.57 ± 0.26
x1 = 0.3945	22.79 ± 0.26
x1 = 0.4993	23.11 ± 0.26
x1 = 0.549	23.28 ± 0.26
x1 = 0.5997	23.46 ± 0.27
x1 = 0.7004	23.88 ± 0.27
x1 = 0.8018	24.47 ± 0.27
x1 = 0.9004	25.2 ± 0.27
x1 = 0.9501	25.67 ± 0.27

COC(=O)OC [dimethyl carbonate] + CCCCCCCC
[2]
Conditions	surface tension liquid-gas [mN/m]
x1 = 0.0503	19.8 ± 0.24
x1 = 0.0976	19.78 ± 0.24
x1 = 0.196	19.85 ± 0.24
x1 = 0.2941	19.93 ± 0.24
x1 = 0.3969	20.09 ± 0.24
x1 = 0.495	20.25 ± 0.25
x1 = 0.5455	20.39 ± 0.25
x1 = 0.5971	20.54 ± 0.25
x1 = 0.6977	20.8 ± 0.25
x1 = 0.7977	21.47 ± 0.25
x1 = 0.8983	23.04 ± 0.26
x1 = 0.9492	24.53 ± 0.27

Cc1ccc(C)cc1 [1,4-dimethylbenzene] + CCCCCCCC
[2]
Conditions	surface tension liquid-gas [mN/m]
x1 = 0.0488	20.02 ± 0.24
x1 = 0.109	20.25 ± 0.24
x1 = 0.1953	20.52 ± 0.24
x1 = 0.2973	20.96 ± 0.24
x1 = 0.3959	21.41 ± 0.25
x1 = 0.4978	21.91 ± 0.25
x1 = 0.5503	22.2 ± 0.25
x1 = 0.5935	22.46 ± 0.25
x1 = 0.6966	23.11 ± 0.26
x1 = 0.8004	23.93 ± 0.26
x1 = 0.9017	24.92 ± 0.27
x1 = 0.9504	25.5 ± 0.27

CCOC(=O)OCC [diethyl carbonate]
Conditions	surface tension liquid-gas [mN/m]
[1]	24.02 ± 0.19

CCOC(=O)OCC [diethyl carbonate] + Cc1ccc(C)cc1
[2]
Conditions	surface tension liquid-gas [mN/m]
x1 = 0.0995	25.98 ± 0.27
x1 = 0.2009	25.68 ± 0.27
x1 = 0.2985	25.42 ± 0.26
x1 = 0.3971	25.18 ± 0.26
x1 = 0.4956	24.94 ± 0.26
x1 = 0.5433	24.83 ± 0.26
x1 = 0.6007	24.7 ± 0.25
x1 = 0.6457	24.6 ± 0.25
x1 = 0.6995	24.49 ± 0.25
x1 = 0.7986	24.3 ± 0.25
x1 = 0.899	24.12 ± 0.25
x1 = 0.9497	24.06 ± 0.25

CCCCCCCCCC [decane]
Conditions	surface tension liquid-gas [mN/m]
[1]	22.1 ± 0.21

CCCCCCCCCC [decane] + COC(=O)OC
[2]
Conditions	surface tension liquid-gas [mN/m]
x2 = 0.0512	21.95 ± 0.26
x2 = 0.09	21.92 ± 0.26
x2 = 0.2006	21.9 ± 0.26
x2 = 0.2853	21.92 ± 0.26
x2 = 0.3971	21.97 ± 0.26
x2 = 0.4949	22.11 ± 0.26
x2 = 0.5987	22.01 ± 0.26
x2 = 0.6988	22.18 ± 0.26
x2 = 0.7971	22.54 ± 0.26
x2 = 0.8983	23.81 ± 0.27
x2 = 0.9505	24.82 ± 0.27

Cc1ccc(C)cc1 [1,4-dimethylbenzene] + COC(=O)OC
[2]
Conditions	surface tension liquid-gas [mN/m]
x2 = 0.0503	26.19 ± 0.27
x2 = 0.1937	25.97 ± 0.27
x2 = 0.2988	25.84 ± 0.27
x2 = 0.4013	25.76 ± 0.27
x2 = 0.5016	25.7 ± 0.27
x2 = 0.6032	25.67 ± 0.27
x2 = 0.7029	25.67 ± 0.27
x2 = 0.7964	25.74 ± 0.27
x2 = 0.8945	25.98 ± 0.27
x2 = 0.9442	26.13 ± 0.27

CCCCCCCC [octane]
Conditions	surface tension liquid-gas [mN/m]
[1]	19.9 ± 0.2
